Earlier results as cited in patent publication US7396837B2, “Antitumoral analogs of lamellarins” (Pharma Mar, S.A.U., priority 2002, dated 2008).

Legend:
fertilised sea urchin = fertilised sea urchin assay; cited from earlier work
P388 = P388 cell line in culture; cited from earlier work
A549 = A549 cell line in culture; cited from earlier work
lung cancer cell lines = conditions: acting as a Type IV microtubule poison; cited from earlier work

Row | SMILES | inhibition of cell division (fertilised sea urchin) | cytotoxicity (P388) | cytotoxicity (A549) | activity in lung cancer cell lines (lung cancer cell lines)
1 | COc1cc(-c2c3n(c4c(=O)oc5cc(O)c(OC)cc5c24)CCc2c-3cc(OC)c(OC)c2OC)ccc1O [Lamellarin C, lamellarin C] | inhibition of cell division |  |  | 
2 | COc1cc2c(cc1O)oc(=O)c1c2c(-c2ccc(OC)c(OC)c2)c2n1CCc1c-2cc(OC)c(OC)c1OC [Lamellarin I, lamellarin I] |  | comparable cytoxicity | comparable cytoxicity | 
3 | COc1cc(-c2c3n(c4c(=O)oc5cc(O)c(OC)cc5c24)CCc2c-3cc(OC)c(OC)c2O)ccc1O [Lamellarin K, lamellarin K] |  | comparable cytoxicity | comparable cytoxicity | 
4 | COc1ccc(-c2c3n(c4c(=O)oc5cc(O)c(OC)cc5c24)CCc2cc(O)c(OC)cc2-3)cc1O [Lamellarin L, lamellarin L] |  | comparable cytoxicity | comparable cytoxicity | 
5 | COc1ccc(-c2c3c4cc(OC)c(O)cc4oc(=O)c3n3ccc4cc(O)c(OC)cc4c23)cc1O [Lamellarin N, lamellarin N] |  |  |  | exhibit activity in lung cancer cell lines
